Data on 16 molecules can be found in ChEMBL document CHEMBL2074222, “Transport properties of nonsteroidal anti-inflammatory drugs by organic anion transporter 1 expressed in Xenopus laevis oocytes” (Mol Pharmacol, 1999).

Broadly, the Ki is the dissociation constant of the complex between target and ligand, obtained from inhibition or displacement. A higher Ki goes with lower affinity. A word on the inhibition: it is how much of the control response was suppressed. A high value points to a strong effect.

What all share (type): functional, cell-based, Oocyte
Data set [1] has as its target T1, Solute carrier family 22 member 6 (Rattus norvegicus, UniProt O35956).
T1 sequence (O35956 whole entry): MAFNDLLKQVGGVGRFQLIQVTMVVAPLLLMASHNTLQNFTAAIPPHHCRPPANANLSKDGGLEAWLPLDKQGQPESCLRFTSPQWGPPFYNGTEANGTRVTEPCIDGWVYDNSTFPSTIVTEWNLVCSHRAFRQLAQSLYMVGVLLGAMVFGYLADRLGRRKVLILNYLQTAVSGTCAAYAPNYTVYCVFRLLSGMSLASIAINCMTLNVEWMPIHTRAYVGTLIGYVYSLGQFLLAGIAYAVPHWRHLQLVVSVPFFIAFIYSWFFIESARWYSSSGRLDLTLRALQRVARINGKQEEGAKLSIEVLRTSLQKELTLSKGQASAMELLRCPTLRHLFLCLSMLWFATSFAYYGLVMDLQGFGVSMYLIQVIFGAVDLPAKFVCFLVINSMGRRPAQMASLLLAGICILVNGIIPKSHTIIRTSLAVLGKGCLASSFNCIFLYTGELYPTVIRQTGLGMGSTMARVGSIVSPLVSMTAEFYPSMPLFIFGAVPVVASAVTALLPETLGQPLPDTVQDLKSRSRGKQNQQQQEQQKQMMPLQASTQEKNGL
The experiment in a line: TP_TRANSPORTER: inhibition of PAH uptake in Xenopus laevis oocytes.

Data set [2] concerns the target T2, Solute carrier family 22 member 6 (SLC22A6) (Rattus norvegicus, UniProt O35956).
T2 sequence (O35956 whole entry): T1 sequence (O35956 whole entry)
Put plainly: TP_TRANSPORTER: inhibition of PAH uptake (PAH: 2 uM, Diclofenac: 1000 uM) in Xenopus laevis oocytes. As to conditions: probe PAH.

The target in data set [3] is T2, Solute carrier family 22 member 6 (SLC22A6). The experiment in a line: TP_TRANSPORTER: inhibition of PAH uptake (PAH: 2 uM, Tolmetin: 1000 uM) in Xenopus laevis oocytes. The following applies: probe PAH.
Data set [4] shares this target. Put plainly: TP_TRANSPORTER: inhibition of PAH uptake (PAH: 2 uM, Phenylbutazone: 1000 uM) in Xenopus laevis oocytes. As to conditions: probe PAH.
For data set [5] the target is unchanged. Put plainly: TP_TRANSPORTER: inhibition of PAH uptake (PAH: 2 uM, Antipyrine: 1000 uM) in Xenopus laevis oocytes. The following applies: probe PAH.
Data set [6] has the same target. Put plainly: TP_TRANSPORTER: inhibition of PAH uptake (PAH: 2 uM, Benzydamine: 1000 uM) in Xenopus laevis oocytes. As to conditions: probe PAH.
For data set [7] the target is unchanged. Put plainly: TP_TRANSPORTER: inhibition of PAH uptake (PAH: 2 uM, Ketoprofen: 1000 uM) in Xenopus laevis oocytes. The following applies: probe PAH.
Data set [8] has the same target. Put plainly: TP_TRANSPORTER: inhibition of PAH uptake (PAH: 2 uM, Diflunisal: 1000 uM) in Xenopus laevis oocytes. The following applies: probe PAH.
For data set [9] the target is unchanged. The experiment in a line: TP_TRANSPORTER: inhibition of PAH uptake (PAH: 2 uM, Flurbiprofen: 1000 uM) in Xenopus laevis oocytes. The following applies: probe PAH.
Data set [10] shares this target. The experiment in a line: TP_TRANSPORTER: inhibition of PAH uptake (PAH: 2 uM, […]: 1000 uM) in Xenopus laevis oocytes. The following applies: probe PAH.
Data set [11] has the same target. Put plainly: TP_TRANSPORTER: inhibition of PAH uptake (PAH: 2 uM, Meclofenamate: 1000 uM) in Xenopus laevis oocytes. As to conditions: probe PAH.

In data set [1], `O=C(O)CNC(=O)c1ccccc1O` [SALICYLURIC ACID] gave a Ki of 11 µM.
In data set [2], `O=C(O)Cc1ccccc1Nc1c(Cl)cccc1Cl` [DICLOFENAC] had an inhibition at 1000 µM of 100%.
The molecule `Cc1ccc(C(=O)c2ccc(CC(=O)O)n2C)cc1` [TOLMETIN] displayed an inhibition at 1000 µM in data set [3] of 99.5%.
In [4], `CCCCC1C(=O)N(c2ccccc2)N(c2ccccc2)C1=O` [PHENYLBUTAZONE] gave an inhibition at 1000 µM of 98.8%.
For the molecule `Cc1cc(=O)n(-c2ccccc2)n1C` [ANTIPYRINE], the inhibition at 1000 µM in data set [5] was found to be 37.8%.
For `COc1ccc2cc([C@H](C)C(=O)O)ccc2c1` [NAPROXEN], the inhibitory constant (Ki) in data set [1] was determined as 2 µM.
In the case of `CC(=O)Nc1ccc(O)cc1` [ACETAMINOPHEN], in data set [1], the inhibitory constant (Ki) worked out at 2100 µM.
As for `NCc1ccccc1` [BENZYLAMINE], in data set [6], the inhibition at 1000 µM amounted to 60%.
In data set [7], `CC(C(=O)O)c1cccc(C(=O)c2ccccc2)c1` (stereo unspecified) [KETOPROFEN] had an inhibition at 1000 µM of 100%.
In turn, `COc1ccc2c(c1)c(CC(=O)O)c(C)n2C(=O)c1ccc(Cl)cc1` [INDOMETHACIN] yielded a Ki in data set [1] of 10 µM.
In [8], `O=C(O)c1cc(-c2ccc(F)cc2F)ccc1O` [DIFLUNISAL] registered an inhibition at 1000 µM of 100%.
With `CCCCC1C(=O)N(c2ccccc2)N(c2ccc(O)cc2)C1=O` (stereo unspecified) [OXYPHENBUTAZONE ANHYDROUS], in [1], the affinity corresponds to a Ki of 32 µM. This counts as double-digit micromolar.
`CCOc1ccc(NC(C)=O)cc1` [PHENACETIN] returned a Ki in [1] of 488 µM. Compared with the last molecule, the Ki is about 15-fold higher.
Turning to `CC(C(=O)O)c1ccc(-c2ccccc2)c(F)c1` (stereo unspecified) [FLURBIPROFEN], at 1000 µM the inhibition in data set [9] was 100%.
In the case of `Cc1c(N(C)C)c(=O)n(-c2ccccc2)n1C` [AMINOPYRINE], in [10], testing at 1000 µM gave an inhibition of 23.8%.
Take `Cc1ccc(Cl)c(Nc2ccccc2C(=O)O)c1Cl` [MECLOFENAMIC ACID]: the inhibition at 1000 µM in [11] came to 99.8%.
